{"source": "patent US10814018B2", "about": "“Isotopically labeled deoxy-glucose and derivatives thereof, compositions comprising them and uses thereof” (HADASIT MEDICAL RESEARCH SERVICE & DEVELOPMENT LTD., priority 2010, dated 2020)", "key": {"[1]": {"conditions": "rats, intravenous, cited from earlier work"}, "[2]": {"test": "Hyperpolarized glucose carbon-13 images in vivo at 3 T after tail vein bolus", "parameters": "species or system rats", "procedure": "Hyperpolarized glucose images were recorded at 3 T in vivo. As depicted in FIG. 5, hyperpolarized [U-^13C6, ^2H7]glucose provided a high signal on carbon-13 images recorded in vivo. Normal rats were anesthetized, and hyperpolarized [U-^13C6, ^2H7]glucose was injected through the tail vein in a bolus of 12 s total duration. Images were recorded at 8, 12, and 20 s from the onset of the bolus injection (i.e. during and after the bolus). […] Arterial hyperpolarized media flow at this time is not likely, as the signal in the kidneys is not yet visible. […] The signal from the injected hyperpolarized media is extremely high with no background signal. At 12 s (FIG. 5B), at the end of the bolus injection, signal intensity in the main vasculature and the heart is still high, with substantial intensity observed in the kidneys (see indicating arrows). At 20 s from bolus initiation (FIG. 5C), signal from the heart is the most intense signal in the image, about 40% higher than signal in the vasculature and 20% higher than signal in the kidneys. Still, signal in the kidneys is clearly observed, as well as signal in other tissues such as the liver (see indicating arrows and color change). The hyperpolarized glucose signal observed in the heart at 20 s from bolus start is more intense than signal in the vasculature and the kidneys. […] In the anaesthetized rat, the only tissue that is expected to actively take up glucose is the myocardium, because under anesthesia it is the only active muscle. […] It is noted that heart anatomy cannot be discerned from these hyperpolarized images since the imaging time (1 s) averaged several heart beats (approximately 6 beats). However, glucose uptake by the myocardium can be determined at short time frames of the order of 20 s using gradient de-phasing of intravoxel moving spins. Using this methodology, hyperpolarized glucose or deoxyglucose signal from capillaries are diminished, while the signal of intracellular hyperpolarized glucose or deoxyglucose are imaged and indicate the level of glucose uptake in the tissue."}, "[3]": {"test": "T1 of glucose 13C nuclei by inversion recovery pulse sequence (Varian NMR spectrometers, 7 T and 11.8 T)", "assay_type": "physicochemical", "procedure": "The effect of glucose concentration on the T1 of its carbon positions was investigated at 7 T (FIG. 1A) and at 11.8 T (FIG. 1B) using Varian NMR spectrometers (The Netherlands). [U-^13C6, ^2H7]glucose was obtained from Cambridge Isotopes Laboratories (Andover, Mass., USA). The T1 of [U-^13C6, ^2H7]glucose ^13C's was measured using the inversion recovery pulse sequence. […] The mean difference between the T1s of the two concentrations was 6.9 s (P=2*10^−6, paired t-test) at 7 T. The mean difference in T1 at 11.8 T was 4.5 s (P=4*10^−5, paired t-test). The labels C1α and C1β (FIG. 1-3) mark the two signals of the glucose carbon at position 1 in the α and β anomers. The labels Ciα and Ciβ (FIG. 1-3) mark the two signals of the glucose carbon at position i in the α and β anomers.\nThe effect of the magnetic field strength on the T1 of glucose carbons was investigated at 7 T (FIG. 2, solid gray columns) and at 11.8 T (FIG. 2, diagonal pattern columns). [U-^13C6, ^2H7]glucose T1 at 400 mM was measured using the inversion recovery pulse sequence in the two spectrometers. […] The mean difference in T1 between the two fields was 2 s (P=6*10^−4, paired t-test).\nTo increase the signal of hyperpolarized deoxy-glucose and hyperpolarized glucose, stable isotope labeling by carbon-13 in all of the carbon positions was used. The effect of direct carbon-13 to carbon-13 bonding on the individual carbon-13 T1s was investigated to study the effect of these added dipolar interactions on T1 relaxation times. To this end, two compounds were investigated (both from Cambridge Isotopes Laboratories): [U-^13C6, ^2H7]glucose (FIG. 3, solid gray columns) and [^2H7]glucose (FIG. 3, diagonal pattern columns), both at 400 mM concentration. The T1 at 11.8 T was measured using the inversion recovery pulse sequence. While both compounds are fully deuterated, in the [U-^13C6, ^2H7]glucose molecule the carbon positions are 99% occupied by ^13C nuclei. In the [^2H7]glucose molecule, only ca. 1.1% of each of the carbon positions are occupied by ^13C nuclei (due to the natural abundance distribution of ^13C). The chance for having two directly bonded ^13C nuclei in this molecule is therefore 0.01% (negligible). Therefore this measurement was indicative of the T1 of singly ^13C labeled glucose. […] Therefore, it was deducted that direct bonding of additional ^13C nuclei led to a decrease in glucose ^13C T1s, due to the additional dipolar interactions."}, "[4]": {"conditions": "value taken as a consideration in the simulation; cited from earlier work"}}}
{"smiles": "O=CC[C@@H](O)[C@H](O)[C@H](O)CO", "note": "[2-deoxy-D-glucose]", "values": [{"measurement": "heart rate", "setting": "[1]; 0.25, 0.5, and 1 g/Kg", "value": "no change"}, {"measurement": "respiratory rate", "setting": "[1]; 0.25, 0.5, and 1 g/Kg", "value": "no change"}, {"measurement": "arterial blood pressure", "setting": "[1]; 0.25, 0.5, and 1 g/Kg, not in a dose dependent manner", "value": "mean decrease"}, {"measurement": "death", "setting": "[1]; dose of 0.25, 0.5, and 1 g/Kg", "value": "No death"}]}
{"smiles": "[2H][13C]1(O)O[13C@]([2H])([13C]([2H])([2H])O)[13C@@]([2H])(O)[13C@]([2H])(O)[13C@@]1([2H])O", "note": "(stereo partly shown) [[U-^13C6, ^2H7]glucose]", "values": [{"measurement": "signal from the heart higher than signal in the kidneys", "setting": "[2]; 20 s from bolus initiation", "value": "~20", "unit": "%"}, {"measurement": "signal from the heart higher than signal in the vasculature", "setting": "[2]; 20 s from bolus initiation", "value": "about 40%"}, {"measurement": "signal on carbon-13 images recorded in vivo", "setting": "[2]; normal anesthetized rats, tail vein bolus of 12 s", "value": "high signal"}, {"measurement": "mean difference in T1 between the two fields (longer at 7 T)", "setting": "[3]; 400 mM, 7 T vs 11.8 T, P=6*10^-4, paired t-test", "value": 2, "unit": "s"}, {"measurement": "T1 of glucose, individual values per carbon position and anomer", "setting": "[3]; 7 T, 400 mM", "value": "8 to 13", "unit": "s"}, {"measurement": "mean difference between the T1s of the two concentrations (longer at 400 mM)", "setting": "[3]; 7 T, 400 mM vs 4.03 M, P=2*10^-6, paired t-test", "value": 6.9, "unit": "s"}, {"measurement": "mean difference in T1 between the two concentrations (longer at 400 mM)", "setting": "[3]; 11.8 T, 400 mM vs 4.03 M, P=4*10^-5, paired t-test", "value": 4.5, "unit": "s"}, {"measurement": "T1 of glucose 13Cs shorter than in [2H7]glucose (natural abundance 13C)", "setting": "[3]; 11.8 T, 400 mM, P=1.4x10^-3, paired t-test", "value": 3.3, "unit": "s"}]}
{"smiles": "CC(=O)C(=O)O", "note": "[pyruvate, [1-^13C]pyruvate]", "values": [{"measurement": "T1 of pyruvate", "setting": "[4]", "value": 55, "unit": "s"}]}
